According to ChEMBL document CHEMBL5506008, “Synthesis and biological evaluation of 1-phenyl-tetrahydro-β-carboline-based first dual PRMT5/EGFR inhibitors as potential anticancer agents” (Eur J Med Chem, 2024):

What was measured:
Type in all cases: functional
[1] = system: MCF7; test: Induction of apoptosis in human MCF7 cells assessed as dead cells at 50 nM measured after 48 hrs by Annexin V-FITC staining based flow cytometry analysis (reference value: 0.02%)
[2] = system: MCF7; test: Induction of apoptosis in human MCF7 cells assessed as late apoptotic cells at 25 nM measured after 48 hrs by Annexin V-FITC staining based flow cytometry analysis (reference value: 0.14%)
[3] = system: MCF7; test: Induction of cell cycle arrest in human MCF7 cells assessed as accumulation of cells at S phase at 50 nM incubated for 48 hrs by PI/RNase staining based flow cytometry analysis (reference value: 44.87%)
[4] = system: MCF7; test: Induction of apoptosis in human MCF7 cells assessed as live cells at 25 nM measured after 48 hrs by Annexin V-FITC staining based flow cytometry analysis (reference value: 99.26%)
[5] = system: MCF7; test: Induction of apoptosis in human MCF7 cells assessed as dead cells at 25 nM measured after 48 hrs by Annexin V-FITC staining based flow cytometry analysis (reference value: 0.02%)
[6] = system: MCF7; test: Induction of cell cycle arrest in human MCF7 cells assessed as accumulation of cells at G2 phase at 50 nM incubated for 48 hrs by PI/Rnase staining based flow cytometry analysis (reference value: […]%)
[7] = system: MCF7; test: Induction of apoptosis in human MCF7 cells assessed as live cells at 50 nM measured after 48 hrs by Annexin V-FITC staining based flow cytometry analysis (reference value: 99.26%)
[8] = system: MCF7; test: Induction of cell cycle arrest in human MCF7 cells assessed as accumulation of cells at G2 phase at 25 nM incubated for 48 hrs by PI/Rnase staining based flow cytometry analysis (reference value: […]%)
[9] = system: MCF7; test: Induction of cell cycle arrest in human MCF7 cells assessed as accumulation of cells at G1 phase at 25 nM incubated for 48 hrs by PI/RNase staining based flow cytometry analysis (reference value: 48.01%)
[10] = system: MCF7; test: Induction of cell cycle arrest in human MCF7 cells assessed as accumulation of cells at S phase at 25 nM incubated for 48 hrs by PI/RNase staining based flow cytometry analysis (reference value: 44.87%)
[11] = system: MCF7; test: Induction of cell cycle arrest in human MCF7 cells assessed as accumulation of cells at G1 phase at 50 nM incubated for 48 hrs by PI/RNase staining based flow cytometry analysis (reference value: 48.01%)
[12] = system: MCF7; test: Induction of apoptosis in human MCF7 cells assessed as late apoptotic cells at 50 nM measured after 48 hrs by Annexin V-FITC staining based flow cytometry analysis (reference value: 0.14%)
[13] = system: MCF7; test: Induction of apoptosis in human MCF7 cells assessed as early apoptotic cells at 50 nM measured after 48 hrs by Annexin V-FITC staining based flow cytometry analysis (reference value: 0.58%)
[14] = system: MCF7; test: Induction of apoptosis in human MCF7 cells assessed as early apoptotic cells at 25 nM measured after 48 hrs by Annexin V-FITC staining based flow cytometry analysis (reference value: 0.58%)

**Q.** Which Activity [1] does the source give for `O=C(NC[C@H](O)CN1CCc2ccccc2C1)c1cc(NC2COC2)ncn1` here?
**A.** The Activity was 3.17%.

**Q.** And the Activity [2]?
**A.** The Activity was 0.83%.

**Q.** What about the Activity [3] of the same compound?
**A.** The Activity was 22.78%.

**Q.** What about the Activity [4] of the same compound?
**A.** The Activity was 96.29%.

**Q.** What about the Activity [5] of the same compound?
**A.** The Activity was 1.47%.

**Q.** And the Activity [6]?
**A.** Its Activity is 9.98%.

**Q.** And the Activity [7]?
**A.** The Activity was 88.73%.

**Q.** What about the Activity [8] of the same compound?
**A.** The Activity was 0.13%.

**Q.** And the Activity [9]?
**A.** Its Activity is 56.22%.

**Q.** What about the Activity [10] of the same compound?
**A.** Its Activity is 43.56%.

**Q.** And the Activity [11]?
**A.** Its Activity is 66.11%.

**Q.** And the Activity [12]?
**A.** The Activity was 4.31%.

**Q.** What about the Activity [13] of the same compound?
**A.** Its Activity is 3.79%.

**Q.** And the Activity [14]?
**A.** Its Activity is 1.41%.
